Converted amounts (≈) assume the structure as drawn.
Legend:
S. aureus = conditions: cited from earlier work
E. coli = conditions: cited from earlier work
B. anthracis = conditions: cited from earlier work
F. tularensis = assay: microbe, parasite or virus in culture; assay type: cell-based; conditions: Francisella tularensis
E. coli TolC- = assay: microbe, parasite or virus in culture; assay type: cell-based; conditions: Escherichia coli

Cc1cc2ncn(Cc3ccc(Cl)c(Cl)c3)c2cc1C [Compound 1]
MIC (S. aureus): 25 mg/L (≈ 81.9 µM)
MIC (E. coli): >200 mg/L
MIC (B. anthracis): 9.4 mg/L (≈ 30.8 µM)

CC(c1ccc(Cl)c(Cl)c1)n1cnc2cc3c(cc21)CCC3 (stereo not drawn) [Compound 3]
MIC (F. tularensis): 3.1 to 6.3 mg/L (≈ 9.36 to 19 µM)

CC(c1ccc(Cl)c(Cl)c1)n1cnc2cc3c(cc21)CCCC3 (stereo not drawn) [Compound 4]
MIC (F. tularensis): 3.1 to 6.3 mg/L (≈ 8.98 to 18.2 µM)
MBC (E. coli TolC-): > 25 mg/L
